≈ marks a conversion by molar mass, not a printed value. One block for each compound: values may come before it.
What was measured:
Assay type in all cases: cell-based
Sa399 (MRSA) = assay: MIC, broth microdilution (Example 3), Table 1; settings: Staphylococcus aureus, CAMHB, final 2% NaCl
Method: (§1) To prepare for MIC testing, individual colonies were isolated by streaking frozen glycerol material containing Staphylococcus or Pseudomonas spp. onto rich, non-selective, tryptic soy agar containing 5% sheep's blood (TSAB), and incubated at 37° C. for 18-24 hrs.
(§2) On the day of testing, primary cultures were started by scraping off 5-10 colonies from the TSAB plates. The material was suspended in ˜5 mL of cation adjusted Mueller Hinton Broth (CAMHB) in 14 mL culture tubes and incubated at 37° C. with aeration (200 rpm) for ˜2 hrs until the OD600 was ≧0.1.
(§3) Inoculum cultures were prepared by standardizing the primary cultures to OD600=0.1 and then adding 20 μL of the adjusted primary culture per 1 mL CAMHB for Pseudomonas and CAMHB plus 4% NaCl for MRSA so that the final inoculum density was ˜10^5 colony forming units per milliliter. Diluted inoculum cultures were used to inoculate 50 μL per well in 96 well broth microdilution assay plates. 50 μL of CAMHB that contained compound concentrations ranging from 64-0.06 μg/mL in two-fold dilutions was also added to the broth microdilution assay plates for a final volume 100 μL per well, therefore final culture OD600 was approximately 0.001 and the final NaCl concentration for the MRSA strain was 2%.
(§4) Plates were incubated for 18-20 hours at 37° C. with aeration (200 rpm). Following incubation, growth was confirmed visually placing plates over a viewing apparatus (stand with a mirror underneath) and then OD600 was measured using a SpectraMax 340PC384 plate reader (Molecular Devices, Sunnyvale, Calif.). Growth was defined as turbidity that could be detected with the naked eye or achieving minimum OD600 of 0.1. MIC values were defined as the lowest concentration producing no visible turbidity.

Pa44 (WT Pa) = assay: MIC, broth microdilution (Example 3), Table 1; settings: Pseudomonas aeruginosa, CAMHB
Method: as §1, §2, §3, §4

Sa399 (ATCC43300, MRSA) = assay: MIC, broth microdilution (Example 5), Table 3; settings: Staphylococcus aureus
Method: (§5) II. […] MIC90 values were defined as the concentration required to inhibit growth of 90% of the strains tested. • C. SAR was performed using the following isolates: Sa399 (ATCC43300, MRSA), Sa1721 (NARSA NRS384, MRSA USA 300), Pa44 (ATCC27853), and 4 clinical isolates (Pa2241, Pa2086 (mucoid strain), Pa2694 and Pa2698). • D. The in vitro antibacterial activity of the compound of formula (I) was further evaluated in an expanded MRSA and Pa MIC panel (see Table 4 and FIG. 6).

Pa2694 = assay: MIC, broth microdilution (Example 5), Table 3; settings: Pseudomonas aeruginosa
Method: as §5

Pa2698 = assay: MIC, broth microdilution (Example 5), Table 3; settings: Pseudomonas aeruginosa
Method: as §5

Pa2241 = assay: MIC, broth microdilution (Example 5), Table 3; settings: Pseudomonas aeruginosa
Method: as §5

Pa2086 (mucoid strain) = assay: MIC, broth microdilution (Example 5), Table 3; settings: Pseudomonas aeruginosa
Method: as §5

Pa44 (ATCC27853) = assay: MIC, broth microdilution (Example 5), Table 3; settings: Pseudomonas aeruginosa
Method: as §5

[1] = system: Sa1721 (NARSA NRS384, MRSA USA 300); assay: MIC, broth microdilution (Example 5), Table 3; settings: Staphylococcus aureus
Method: as §5

MRSA #712 = assay: MIC in MHB by standard CLSI microdilution (Example 4); settings: Staphylococcus aureus; MRSA #712; read-out: MIC
Text: II. Methods • A. Animals: Six week-old, specific pathogen free, female CD-1 mice purchased from Charles River Laboratories (Wilmington, Mass.) were used for all studies after acclimation in Cubist animal facility. All animal procedures were approved by the Cubist Institutional Animal Care and Use Committee. • B. Bacteria and In Vitro Susceptibility Testing: MRSA #712, Pseudomonas aeruginosa #2245 and #2545, and Klebsiella pneumoniae #573 are clinical isolates; Pseudomonas aeruginosa #44 is an ATCC strain (ATCC#27853). MIC was determined in MHB by standard CLSI microdilution. Comparator Antibiotics Used in Animal Studies: Vancomycin hydrochloride USP was purchased from Hospira (Lake Forest, Ill.); ceftazidime hydrate from Sigma; Primaxin (imipenem and cilastatin) from Merck; ceftaroline was synthesized at a CRO. • D. Mouse Septicemia: Mice received lethal inocula of bacteria in 6% hog gastric mucin intraperitoneally (IP), followed by two treatment doses of antibiotics via subcutaneous (SC) administration at 1 and 6 hrs post-inoculation. The survival of animals was recorded daily for 7 days. The antibiotic dose calculated to protect 50% of the mice (PD50) was derived based on probit analysis of percentage survival. • E. Mouse Thigh and Lung Infections: Mice were rendered neutropenic by two IP injections of cyclophosphamide 4 days (150 mg/kg) and 1 day (100 mg/kg) before bacterial inoculation. Thigh or lung infection was induced by an intramuscular injection of 0.2 mL or intranasal inoculation of 0.1 mL inoculum preparation from an overnight bacterial culture into left thigh or nares. Tissues from one group of mice receiving no treatment (No Rx) were harvested at 1 hr for determination of baseline of bacterial burden. The remaining mice received two treatment doses of vehicles or antibiotics given SC at 1 and 6 hrs post-inoculation. Tissues from the treated mice were harvested at ˜24 hrs post-inoculation. Tissue bacterial burdens were quantified by serial dilution and spiral plating of homogenates.

MRSA (n = 21) = assay: MIC90, expanded MIC panel (Table 4); settings: Staphylococcus aureus; 21 MRSA strains; read-out: MIC90 MRSA (n = 21)
Method: as §5

[2] = system: Pseudomonas aeruginosa (n = 100); assay: MIC90, expanded MIC panel (Table 4); settings: 100 Pa strains
Method: as §5

Structure (SMILES): C[C@@H](O)[C@H]1C(=O)N2C(C(=O)O)=C(S[C@@H]3CN[C@H](C(=O)N(C)C)C3)[C@H](C)[C@H]12 [Meropenem]
- MIC90 [2]: 4 µg/mL (≈ 10.4 µM)

Structure (SMILES): CCCc1ccc(C(=O)NCc2cc[n+](CC3=C(C(=O)[O-])N4C(=O)[C@@H](NC(=O)/C(=N\OC)c5nc(N)sc5Cl)[C@H]4SC3)cc2)cc1 [Compound 1-3]
- MIC (Sa399 (MRSA)): 8 to 16 µg/mL (≈ 11.7 to 23.4 µM)
- MIC (Pa44 (WT Pa)): > 16 µg/mL

Continued, values first:

- MIC (Sa399 (MRSA)): > 16 µg/mL
- MIC (Pa44 (WT Pa)): ≤ 4 µg/mL
Structure (SMILES): CO/N=C(\C(=O)N[C@@H]1C(=O)N2C(C(=O)[O-])=C(C[N+]3(C)CCCC3)CS[C@H]12)c1csc(N)n1 [Cefepime]

- MIC (Sa399 (ATCC43300, MRSA)): 0.5 µg/mL (≈ 0.827 µM)
- MIC (Pa2694): > 64 µg/mL
- MIC (Pa2698): > 64 µg/mL
- MIC (Pa2241): 16 µg/mL (≈ 26.5 µM)
- MIC (Pa2086 (mucoid strain)): 16 µg/mL (≈ 26.5 µM)
- MIC (Pa44 (ATCC27853)): 8 µg/mL (≈ 13.2 µM)
- MIC [1]: 2 µg/mL (≈ 3.31 µM)
- MIC (MRSA #712): 1 µg/mL (≈ 1.65 µM)
- MIC90 (MRSA (n = 21)): 1 µg/mL (≈ 1.65 µM)
Structure (SMILES): CCO/N=C(\C(=O)N[C@@H]1C(=O)N2C(C(=O)[O-])=C(Sc3nc(-c4cc[n+](C)cc4)cs3)CS[C@H]12)c1nsc(N)n1 [Ceftaroline, ceftaroline]

- MIC (Sa399 (MRSA)): > 16 µg/mL
- MIC (Pa44 (WT Pa)): ≤ 4 µg/mL
Structure (SMILES): CO/N=C(\C(=O)N[C@@H]1C(=O)N2C(C(=O)[O-])=C(C[n+]3ccc(CN)cc3)CS[C@H]12)c1csc(N)n1 [Compound 1-1]

— patent US8809314B1, “Cephalosporin compound” (Cubist Pharmaceuticals, Inc., priority 2012, dated 2014)
